In patent publication US20110160260A1, “Method of Treating a Neurodegenerative Disorder” (Chung Shan Medical University, priority 2009, published 2011):

Experiments:
Format in all cases: in vivo, Wistar rats
[1] = test system: MPTP-lesioned rats (Parkinson's disease animal model); experiment: Episodic-like memory test in MPTP-lesioned rats
Procedure: (§1) Thirty-nine male Wistar rats (306.2±0.9 g; BioLASCO Taiwan Co., Ltd.) were used as experimental animals in the present invention. All experimental procedures were performed according to the NIH Guide for the Care and Use of Laboratory Animals and were approved by the Animal Care Committee of the Chung Shan Medical University (IACUC approval No.: 434). All animals underwent stereotaxic surgery and MPTP were injected into the substantia nigra pars compacta (SNc) in the animals to establish Parkinson's disease animal model. One day after the surgery, the rats received daily dose of intraperitoneal (i.p.) injections of D-cycloserine (DCS) (0, 5, or 10 mg/kg/day) or saline at 18:00 for 13 days. The animals were divided respectively into groups of experimental group 0 (E0), receiving MPTP+saline, experimental group 1 (E1), receiving MPTP+DCS 5 mg/kg/day, experimental group 2 (E2), receiving MPTP+DCS 10 mg/kg/day and Sham-operated group/control group (CR), receiving saline (1 ml/kg/day, i.p.) (also called control group or Sham+saline group). The descriptions of “control group, experimental group 0, experimental group 1 and experimental group 2” were used below.
(§2) For the brain surgery, all animals were intraperitoneal injected with Zoletil (2 mg/kg; Virbac, Carros, Franc) and received stereotaxic surgery after anesthetization. MPTP-HCl (1 μmol in 2 μl of saline; Sigma, Mo., USA) (Da Cunha et al., Behav Brain Res, 2001, 124:9-18; Gevaerd et al., Brain Res Bull, 2001, 55: 101-6) or saline (2 μl) were microinjected into the substantia nigra pars compacta (SNc).
The episodic-like memory test was performed in an open field (60×60×40 cm, without roof allowing rats to aware external distal cues), 13 days after the MPTP lesion. The floor of the open field was divided into 9 areas of equal size. A video camera was mounted 160 cm above the center of the open field to record and analysis the behavior of rats. Two different sets of objects made of metal or plastic were used in the experiment. The objects weighed about 950 g and therefore, they were unmovable by the rats. The two objects differed in the diameter of base, height, color, shape, and surface texture (the metal object: column in shape, 6.5 cm in diameter, 12 cm high, silver-colored, smooth surface; the plastic object: cuboid in shape, a 7.5×5 cm cross section, 15 cm high, pellucid-colored, rough surface). One day before the test, rats were placed individually into the open field for twice and allowed to explore it (once for 5 min), with a 4 h interval, for adapting to the testing environment.
The procedure of episodic-like memory test was consistent with previous reported research (Li and Chao., Neurobiol Learn Mem 2008; 89:192-8). The method comprised two sample trials and one testing trial. In the first sample trial, the rats were placed in the open field with four identical objects (FIG. 1A, upper left), and allowed to explore them for 5 min. After an interval of 60 min, the rats were put into the same open field again and received the second sample trial for 5 min, wherein the objects were replaced with another objects and the spatial configuration was changed (FIG. 1A, lower left). After an additional interval of 60 min, the rats received a testing trial, wherein two identical objects from sample trial 1 (the “old” objects; “O”) and two identical objects from sample trial 2 (the “recent” objects; “R”) were presented. In the testing trial, animals encountered a mixed set consisting of two “O” and two “R” objects. One object from each of the two sets of objects was placed in the “same” location as in the sample trials (Os and Rs). The other two objects were “displaced” to new locations (Od and Rd) (FIG. 1A, lower right). Time spent on exploring the objects was recorded.

[2] = test system: activated microglia in SNc, striatum and hippocampus of MPTP-lesioned rats; experiment: OX-6 (MHC class II) immunostaining, density of activated microglia
Procedure: as §1, §2
One day after the test of episodic-like memory, rats were sacrificed under deep anesthesia by CO2. For histological assessment, 5-6 randomly selected rats per group were perfused cardiacly with 4% paraformaldehyde in phosphate-buffered saline (PBS), and the brains were removed rapidly and post-fixed in 20% sucrose solution with 4% paraformaldehyde at 4° C. The frozen coronal brain sections were cut into 30 μm and further immunostained with mouse monoclonal antibodies against rat tyrosine hydroxylase (TH) (1:2000; Zymade, USA) or rat MHC class II (OX-6; 1:200; BD Biosciences Pharmingen, CA, USA) at 4° C. overnight, identical to the method used in our previous report (Wang, Wu, Liou, et. al, Behav Neurosci, 2009). In sections containing hippocampus, neurons in the hippocampus was identified by Nissl staining method.
A microscope (ZEISS AXioskop2, Germany) disposed with a CCD (Optronics, USA) and the Image Pro Plus Software 6.0 (Media Cybernetics, CA, USA) was used for observation. The three square areas (measuring 36,477, 18,769, and 2,354 μm^2) were applied respectively to determine the relative optical density of TH immunoreactivity in the striatum and the neuronal density in the SNc and hippocampal CA1 area. The images of TH staining were converted to the gray scale for measuring the density of DAergic projections. The gray level of a given area of interest was measured, and the background staining measured in non-immunoreactive corpus callosum was subtracted. […] The somas of TH immunoreactive neurons located in this area were counted. The density of activated microglia was measured, according to the methods described in the literature (Sugama S, et al., Brain Res, 2003, 964: 288-94). […] Then, the numbers of activated microglial cells in the SNc, striatum, and hippocampus were counted in the areas of interest (measuring 18,769, 36,477, and 18,769 μm^2, respectively). […]

[3] = test system: pyramidal neurons in hippocampal CA1 area of MPTP-lesioned rats; experiment: Nissl staining of hippocampal CA1 pyramidal cell layer, neuronal density; conditions: DCS 10 mg/kg/day
Procedure: Thirty-nine male Wistar rats (306.2±0.9 g; BioLASCO Taiwan Co., Ltd.) were used as experimental animals in the present invention. All experimental procedures were performed according to the NIH Guide for the Care and Use of Laboratory Animals and were approved by the Animal Care Committee of the Chung Shan Medical University (IACUC approval No.: 434). All animals underwent stereotaxic surgery and MPTP were injected into the substantia nigra pars compacta (SNc) in the animals to establish Parkinson's disease animal model. One day after the surgery, the rats received daily dose of intraperitoneal (i.p.) injections of D-cycloserine (DCS) (0, 5, or 10 mg/kg/day) or saline at 18:00 for 13 days. […]
A microscope (ZEISS AXioskop2, Germany) disposed with a CCD (Optronics, USA) and the Image Pro Plus Software 6.0 (Media Cybernetics, CA, USA) was used for observation. […] The gray level of a given area of interest was measured, and the background staining measured in non-immunoreactive corpus callosum was subtracted. […] The somas of TH immunoreactive neurons located in this area were counted. The density of activated microglia was measured, according to the methods described in the literature (Sugama S, et al., Brain Res, 2003, 964: 288-94). […]

[4] = test system: DAergic neurons in striatum and SNc of MPTP-lesioned rats; experiment: Tyrosine hydroxylase (TH) immunostaining of striatum and SNc, image analysis
Procedure: as §1, §2
One day after the test of episodic-like memory, rats were sacrificed under deep anesthesia by CO2. For histological assessment, 5-6 randomly selected rats per group were perfused cardiacly with 4% paraformaldehyde in phosphate-buffered saline (PBS), and the brains were removed rapidly and post-fixed in 20% sucrose solution with 4% paraformaldehyde at 4° C. […]
A microscope (ZEISS AXioskop2, Germany) disposed with a CCD (Optronics, USA) and the Image Pro Plus Software 6.0 (Media Cybernetics, CA, USA) was used for observation. […] The gray level of a given area of interest was measured, and the background staining measured in non-immunoreactive corpus callosum was subtracted. […] The somas of TH immunoreactive neurons located in this area were counted. The density of activated microglia was measured, according to the methods described in the literature (Sugama S, et al., Brain Res, 2003, 964: 288-94). […] Then, the numbers of activated microglial cells in the SNc, striatum, and hippocampus were counted in the areas of interest (measuring 18,769, 36,477, and 18,769 μm^2, respectively). […]

For `N[C@@H]1CONC1=O` [DCS, D-4-amino-3-isoxazolidone], the “function of episodic-like memory after MPTP lesion” value ([1]; DCS 10 mg/kg/day) was “recovered”, the “time exploring old object, same location (Os) vs different location (Od), paired t-test” value ([1]; MPTP+DCS 5 mg/kg/day (E1)) was “had the trend of significance” and the “time exploring recent object, displaced (Rd) vs same place (Rs), paired t-test” value ([1]; MPTP+DCS 5 mg/kg/day (E1)) was “no differences between exploring Rs and exploring Rd”. For the same compound, the “total exploration time in the test trial” value ([1]; MPTP+DCS 5 mg/kg/day i.p. for 13 days (E1)) was 54.4 ± 5.9 s, the “time exploring recent object, displaced (Rd) vs same place (Rs), paired t-test” value ([1]; MPTP+DCS 10 mg/kg/day (E2), P<0.001) was “spent a longer time exploring the displaced object (Rd)” and the “time exploring old object, same location (Os) vs different location (Od), paired t-test” value ([1]; MPTP+DCS 10 mg/kg/day (E2), P<0.05) was “spent a longer time exploring the old object placed in the same location (Os)”. For the same compound, the “total exploration time in the test trial” value ([1]; MPTP+DCS 10 mg/kg/day i.p. for 13 days (E2)) was 25.4 ± 4.3 s, the “MPTP-induced microglial activation in the SNc” value ([2]; DCS 5 mg/kg/day) was “suppressed” and the “MPTP-induced microglial activation in the hippocampus” value ([2]; DCS 5 mg/kg/day) was “suppressed”. For the same compound, the “MPTP-induced microglial activation in the SNc” value ([2]; DCS 10 mg/kg/day) was “suppressed”, the “MPTP-induced microglial activation in the hippocampus” value ([2]; DCS 10 mg/kg/day) was “suppressed” and the “microglial activation in the striatum” value ([2]; DCS 5 and 10 mg/kg/day groups vs other groups) was “no significant difference between the groups”. For the same compound, the “MPTP-induced decrease of neuronal density in the pyramidal cell layer of hippocampal CA1 area” value [3] was “blocked”, the “MPTP-induced reduction in relative optical density of TH immunoreactivity in the striatum” value ([4]; DCS 5 mg/kg/day) was “blocked” and the “MPTP-induced reduction in the density of DAergic neurons in the SNc” value ([4]; DCS 5 mg/kg/day) was “blocked”. For the same compound, the “MPTP-induced reduction in relative optical density of TH immunoreactivity in the striatum” value ([4]; DCS 10 mg/kg/day) was “blocked” and the “MPTP-induced reduction in the density of DAergic neurons in the SNc” value ([4]; DCS 10 mg/kg/day) was “blocked”.
